Laboratory results reported in US20230148005A1, “MACROCYCLIC COMPOUNDS AND USES THEREOF” (THESEUS PHARMACEUTICALS, INC., priority 2020, published 2023).

Legend:
EGFR^L858R/T790M/C^797S = EGFR^L858R/T790M/C^797S (Homo sapiens, UniProt P00533, C797S/L858R/T790M); test: in vitro kinase assay (HTRF KinEASE-TK kit), LTC; type: biochemical; settings: kinase inhibition
Text: (§1) Assays using an in vitro kinase assay kit (HTRF KinEASE-TK kit) can be used to study the inhibitory activity of compounds described herein with respect to EGFR mutants such as EGFR^L858R, EGFR^L58R/T790M, and EGFR^L858R/T790M/C^797S.

EGFR^L58R/T790M = EGFR^L58R/T790M (Homo sapiens, UniProt P00533, L858R/T790M); test: in vitro kinase assay (HTRF KinEASE-TK kit), LT; type: biochemical; settings: kinase inhibition
Text: as §1

EGFR^L858R = EGFR^L858R (Homo sapiens, UniProt P00533, L858R); test: in vitro kinase assay (HTRF KinEASE-TK kit), L; type: biochemical; settings: kinase inhibition
Text: as §1

[1] = target: Ba/F3 EGFR-Del19/T790M/C797S (Homo sapiens, UniProt P00533, T790M/C797S, cells depend on it, form not given); test: Ba/F3 viability assay (CellTiter-Glo), DTC; type: cell-based; settings: anti-proliferation, read-out: BaF3 DTC IC50
Text: (§2) Inhibition of cell proliferation can be studied using Ba/F3 viability assays, including the Promega CellTiter-Glo cell viability assay. This assay can be used to study the effect of compounds described herein in the following assays: (1) Ba/F3 Parental; (2) Ba/F3 EGFR-Del19/T790M; (3); Ba/F3 EGFR-Del19/C797S; and (4) Ba/F3 EGFR-Del19/T790M/C797S.

Ba/F3 EGFR-Del19/T790M = Ba/F3 EGFR-Del19/T790M (Homo sapiens, UniProt P00533, T790M, cells depend on it, form not given); test: Ba/F3 viability assay (CellTiter-Glo), DT; type: cell-based; settings: anti-proliferation, read-out: BaF3 DT IC50
Text: as §2

Ba/F3 EGFR-Del19/C797S = Ba/F3 EGFR-Del19/C797S (Homo sapiens, UniProt P00533, C797S, cells depend on it, form not given); test: Ba/F3 viability assay (CellTiter-Glo), DC; type: cell-based; settings: anti-proliferation, read-out: BaF3 DC IC50
Text: as §2

Ba/F3 Parental = test: Ba/F3 viability assay (CellTiter-Glo), parental; type: cell-based; settings: Mus musculus, BaF3, anti-proliferation
Text: as §2

Sequence of EGFR^L858R/T790M/C^797S (P00533 25-1210 T790M/C797S/L858R): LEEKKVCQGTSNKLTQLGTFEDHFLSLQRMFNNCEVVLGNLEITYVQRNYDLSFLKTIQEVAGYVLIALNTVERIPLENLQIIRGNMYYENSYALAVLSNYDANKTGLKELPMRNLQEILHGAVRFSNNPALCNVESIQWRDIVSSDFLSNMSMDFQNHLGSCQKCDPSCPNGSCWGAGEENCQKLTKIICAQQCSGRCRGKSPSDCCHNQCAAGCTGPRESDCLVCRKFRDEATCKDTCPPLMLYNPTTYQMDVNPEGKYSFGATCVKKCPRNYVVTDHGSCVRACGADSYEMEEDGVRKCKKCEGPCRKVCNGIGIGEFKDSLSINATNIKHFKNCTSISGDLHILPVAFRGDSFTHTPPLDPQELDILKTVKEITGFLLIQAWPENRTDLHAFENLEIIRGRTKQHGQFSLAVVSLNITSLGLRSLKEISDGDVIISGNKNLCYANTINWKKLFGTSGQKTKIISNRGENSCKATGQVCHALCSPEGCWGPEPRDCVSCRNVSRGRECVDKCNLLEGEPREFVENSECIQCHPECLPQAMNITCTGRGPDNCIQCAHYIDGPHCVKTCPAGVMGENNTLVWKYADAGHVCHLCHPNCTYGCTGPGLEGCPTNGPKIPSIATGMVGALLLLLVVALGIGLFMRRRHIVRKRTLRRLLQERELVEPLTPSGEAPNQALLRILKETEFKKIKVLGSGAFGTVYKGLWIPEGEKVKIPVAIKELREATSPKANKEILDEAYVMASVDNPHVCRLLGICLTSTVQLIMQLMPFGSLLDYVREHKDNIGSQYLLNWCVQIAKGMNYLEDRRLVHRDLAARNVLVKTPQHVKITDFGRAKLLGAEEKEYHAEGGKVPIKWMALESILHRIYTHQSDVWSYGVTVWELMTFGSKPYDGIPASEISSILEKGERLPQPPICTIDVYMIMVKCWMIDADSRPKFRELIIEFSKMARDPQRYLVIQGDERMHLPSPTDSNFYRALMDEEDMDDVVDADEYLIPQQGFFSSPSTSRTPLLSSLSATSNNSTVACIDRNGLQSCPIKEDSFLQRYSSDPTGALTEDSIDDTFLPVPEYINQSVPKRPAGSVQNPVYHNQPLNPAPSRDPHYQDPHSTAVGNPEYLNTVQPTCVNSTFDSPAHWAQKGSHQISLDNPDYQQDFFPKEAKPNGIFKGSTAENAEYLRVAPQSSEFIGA
Sequence of Ba/F3 EGFR-Del19/T790M (P00533 with tags, fused parts or gaps DEL746-750/T790M, form open): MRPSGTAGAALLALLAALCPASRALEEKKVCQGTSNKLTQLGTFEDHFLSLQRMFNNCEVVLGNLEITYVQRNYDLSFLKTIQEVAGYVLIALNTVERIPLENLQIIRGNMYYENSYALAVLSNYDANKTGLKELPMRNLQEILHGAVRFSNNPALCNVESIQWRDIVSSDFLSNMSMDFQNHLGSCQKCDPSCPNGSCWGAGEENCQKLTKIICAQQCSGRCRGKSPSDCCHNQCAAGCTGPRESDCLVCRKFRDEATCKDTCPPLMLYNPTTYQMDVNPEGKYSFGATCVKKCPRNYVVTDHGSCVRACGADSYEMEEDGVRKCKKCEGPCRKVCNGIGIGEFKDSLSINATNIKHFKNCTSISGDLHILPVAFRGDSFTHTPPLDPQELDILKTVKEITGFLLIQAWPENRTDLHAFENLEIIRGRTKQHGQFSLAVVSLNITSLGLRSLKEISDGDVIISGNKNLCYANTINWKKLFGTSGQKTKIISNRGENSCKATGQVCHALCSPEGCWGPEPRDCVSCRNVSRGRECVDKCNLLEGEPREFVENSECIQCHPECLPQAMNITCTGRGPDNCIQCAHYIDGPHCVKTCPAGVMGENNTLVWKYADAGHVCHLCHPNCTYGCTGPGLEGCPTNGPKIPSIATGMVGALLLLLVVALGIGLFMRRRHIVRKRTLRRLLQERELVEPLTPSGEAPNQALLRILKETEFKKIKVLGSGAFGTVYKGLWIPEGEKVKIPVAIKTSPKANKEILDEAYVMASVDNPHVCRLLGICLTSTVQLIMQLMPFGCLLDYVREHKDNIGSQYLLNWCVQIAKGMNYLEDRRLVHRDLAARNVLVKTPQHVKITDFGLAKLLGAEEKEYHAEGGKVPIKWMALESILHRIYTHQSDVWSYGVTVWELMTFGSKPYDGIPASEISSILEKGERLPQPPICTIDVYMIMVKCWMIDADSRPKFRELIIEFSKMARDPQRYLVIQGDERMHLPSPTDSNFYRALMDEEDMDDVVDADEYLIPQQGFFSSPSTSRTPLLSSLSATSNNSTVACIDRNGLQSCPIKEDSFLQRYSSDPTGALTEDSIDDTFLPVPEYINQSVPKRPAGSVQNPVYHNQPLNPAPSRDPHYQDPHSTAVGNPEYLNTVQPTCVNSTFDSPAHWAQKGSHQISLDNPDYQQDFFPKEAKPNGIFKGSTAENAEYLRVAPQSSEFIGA
Sequence of EGFR^L858R (P00533 25-1210 L858R): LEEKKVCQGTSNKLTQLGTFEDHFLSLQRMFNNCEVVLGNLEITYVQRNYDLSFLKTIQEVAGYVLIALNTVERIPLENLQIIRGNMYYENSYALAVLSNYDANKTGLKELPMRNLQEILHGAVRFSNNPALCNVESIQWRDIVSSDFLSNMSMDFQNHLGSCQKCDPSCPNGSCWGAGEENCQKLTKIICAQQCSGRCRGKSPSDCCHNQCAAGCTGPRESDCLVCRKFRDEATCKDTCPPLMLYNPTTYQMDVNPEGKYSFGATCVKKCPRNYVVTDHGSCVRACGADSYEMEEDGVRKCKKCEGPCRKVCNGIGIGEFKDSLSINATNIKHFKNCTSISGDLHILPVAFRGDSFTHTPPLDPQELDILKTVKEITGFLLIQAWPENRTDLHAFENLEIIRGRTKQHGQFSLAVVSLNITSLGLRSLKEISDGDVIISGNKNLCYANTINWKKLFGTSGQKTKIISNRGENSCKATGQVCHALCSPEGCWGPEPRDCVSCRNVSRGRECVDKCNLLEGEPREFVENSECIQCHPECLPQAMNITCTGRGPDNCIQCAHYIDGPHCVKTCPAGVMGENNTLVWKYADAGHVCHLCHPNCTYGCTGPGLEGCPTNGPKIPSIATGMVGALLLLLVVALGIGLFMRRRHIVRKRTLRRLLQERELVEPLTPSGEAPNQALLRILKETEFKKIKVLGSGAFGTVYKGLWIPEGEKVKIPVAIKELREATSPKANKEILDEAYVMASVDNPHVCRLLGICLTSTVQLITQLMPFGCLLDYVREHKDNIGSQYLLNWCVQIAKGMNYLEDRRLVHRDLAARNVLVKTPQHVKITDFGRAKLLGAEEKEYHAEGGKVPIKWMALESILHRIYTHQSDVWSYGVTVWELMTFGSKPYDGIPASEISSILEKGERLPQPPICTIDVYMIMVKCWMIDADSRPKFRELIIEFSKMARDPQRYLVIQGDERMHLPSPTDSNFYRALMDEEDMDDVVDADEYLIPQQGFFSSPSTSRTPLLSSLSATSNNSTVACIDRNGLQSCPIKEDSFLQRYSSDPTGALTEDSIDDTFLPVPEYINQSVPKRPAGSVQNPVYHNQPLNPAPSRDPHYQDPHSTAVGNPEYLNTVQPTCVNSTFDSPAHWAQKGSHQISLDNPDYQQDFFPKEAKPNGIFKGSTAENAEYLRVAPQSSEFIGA
Sequence of EGFR^L58R/T790M (P00533 25-1210 T790M/L858R): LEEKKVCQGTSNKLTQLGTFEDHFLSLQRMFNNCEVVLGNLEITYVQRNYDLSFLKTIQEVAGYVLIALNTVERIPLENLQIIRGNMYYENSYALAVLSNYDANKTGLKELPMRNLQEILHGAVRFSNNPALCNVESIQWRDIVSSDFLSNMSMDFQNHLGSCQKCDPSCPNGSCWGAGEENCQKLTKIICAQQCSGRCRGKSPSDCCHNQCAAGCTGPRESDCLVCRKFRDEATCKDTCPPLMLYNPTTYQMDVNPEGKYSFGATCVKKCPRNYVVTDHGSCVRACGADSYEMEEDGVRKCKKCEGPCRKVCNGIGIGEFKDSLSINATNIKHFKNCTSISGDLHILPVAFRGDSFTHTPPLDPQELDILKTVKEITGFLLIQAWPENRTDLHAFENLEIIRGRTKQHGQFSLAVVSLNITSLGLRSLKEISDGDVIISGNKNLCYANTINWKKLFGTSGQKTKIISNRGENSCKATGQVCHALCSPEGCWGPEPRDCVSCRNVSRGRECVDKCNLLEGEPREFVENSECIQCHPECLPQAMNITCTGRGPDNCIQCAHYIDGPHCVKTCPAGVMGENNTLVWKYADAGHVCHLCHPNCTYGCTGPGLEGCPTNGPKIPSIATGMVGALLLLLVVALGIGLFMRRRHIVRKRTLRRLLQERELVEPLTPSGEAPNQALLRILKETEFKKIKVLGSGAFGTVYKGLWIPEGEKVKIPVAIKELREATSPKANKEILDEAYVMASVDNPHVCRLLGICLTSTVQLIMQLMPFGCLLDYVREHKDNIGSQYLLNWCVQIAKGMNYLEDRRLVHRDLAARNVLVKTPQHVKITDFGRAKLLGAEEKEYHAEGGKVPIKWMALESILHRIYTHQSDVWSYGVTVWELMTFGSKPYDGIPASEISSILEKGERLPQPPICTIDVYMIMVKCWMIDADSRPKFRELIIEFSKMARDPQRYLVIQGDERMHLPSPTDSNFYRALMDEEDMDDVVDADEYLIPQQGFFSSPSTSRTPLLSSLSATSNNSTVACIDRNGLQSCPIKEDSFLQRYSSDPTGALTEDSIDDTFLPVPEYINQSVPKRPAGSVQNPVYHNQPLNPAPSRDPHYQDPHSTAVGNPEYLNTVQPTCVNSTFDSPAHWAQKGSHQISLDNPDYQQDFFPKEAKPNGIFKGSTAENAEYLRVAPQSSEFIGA

SMILES	IC50 (EGFR^L858R/T790M/C^797S)	IC50 (EGFR^L58R/T790M)	IC50 (EGFR^L858R)	GI50 [1]	GI50 (Ba/F3 EGFR-Del19/T790M)	GI50 (Ba/F3 EGFR-Del19/C797S)	IC50 (Ba/F3 Parental)
CC(C)N(C)Cc1ccc(-c2nn3c4cc(ncc24)Nc2ccnc(n2)-c2cnn(C)c2OCC[C@@H]3C)n1C [(189)]	< 10 nM	< 10 nM	< 10 nM	< 10 nM	< 10 nM	< 10 nM	100 to 1000 nM
CCN(CC)CCOc1cccc(-c2nn3c4cc(ncc24)Nc2ccnc(n2)-c2cnn(C)c2OCC[C@@H]3C)c1C [(158)]	< 10 nM	< 10 nM	100 to 1000 nM	100 to 1000 nM	100 to 1000 nM	100 to 1000 nM	100 to 1000 nM
C[C@H]1CCOc2c(cnn2C)-c2nccc(n2)Nc2cc3c(cn2)c(N2CC[C@H](CN(C)CCF)C2)nn31 [(169)]	< 10 nM	< 10 nM	< 10 nM	< 10 nM	< 10 nM	< 10 nM	100 to 1000 nM
CCN(CC)CCOc1ccc(C)c(-c2nn3c4cc(ncc24)Nc2ccnc(n2)-c2cnn(C)c2OCC[C@@H]3C)c1 [(159)]	10 to 100 nM	10 to 100 nM	100 to 1000 nM	100 to 1000 nM	100 to 1000 nM	100 to 1000 nM	100 to 1000 nM
CCN(CC)Cc1ccc(-c2nn3c4cc(ncc24)Nc2ccnc(n2)-c2cnn(C)c2OCC[C@@H]3C)n1C [(137)]	< 10 nM	< 10 nM	< 10 nM	< 10 nM	< 10 nM	< 10 nM	100 to 1000 nM
CCn1c(CN(C)C)ccc1-c1nn2c3cc(ncc13)Nc1ccnc(n1)-c1cnn(C)c1OCC[C@@H]2C [(191)]	< 10 nM	< 10 nM	< 10 nM	< 10 nM	10 to 100 nM	< 10 nM	100 to 1000 nM
Cc1c(-c2nn3c4cc(ncc24)Nc2ccnc(n2)-c2cnn(C)c2OCCCC3C)cnn1CCC(C)(C)O (stereo not drawn) [(92)]	< 10 nM	< 10 nM	10 to 100 nM	10 to 100 nM	10 to 100 nM	10 to 100 nM	100 to 1000 nM
CN(C)CC1CCN(c2nn3c4cc(ncc24)Nc2ccnc(n2)-c2cnn(C)c2OCCC3)C1 (stereo not drawn) [(13)]	< 10 nM	< 10 nM	10 to 100 nM	10 to 100 nM	10 to 100 nM	100 to 1000 nM	100 to 1000 nM
C[C@H]1CCOc2c(cnn2C)-c2nccc(n2)Nc2cc3c(cn2)c(-c2cc(F)cc(OCCN(C)C)c2)nn31 [(129)]	< 10 nM	< 10 nM	10 to 100 nM	10 to 100 nM	10 to 100 nM	10 to 100 nM	100 to 1000 nM
C[C@H]1CCOc2c(cnn2C)-c2nccc(n2)Nc2cc3c(cn2)c(N2CC[C@H](N(C)CCF)C2)nn31 [(170)]	< 10 nM	< 10 nM	< 10 nM	< 10 nM	10 to 100 nM	10 to 100 nM	100 to 1000 nM
CC1CCCOc2c(cnn2C)-c2nccc(n2)Nc2cc3c(cn2)c(N2CCC2)nn31 (stereo not drawn) [(1)]	< 10 nM	< 10 nM	< 10 nM	< 10 nM	< 10 nM	10 to 100 nM	100 to 1000 nM
C[C@H]1CCOc2c(cnn2C)-c2nccc(n2)Nc2cc3c(cn2)c(N2CC[C@@H](CN(C)CCF)C2)nn31 [(175)]	< 10 nM	< 10 nM	< 10 nM	< 10 nM	< 10 nM	< 10 nM	10 to 100 nM
CCN(CC)CCn1cc(-c2nn3c4cc(ncc24)Nc2ccnc(n2)-c2cnn(C)c2OCC[C@@H]3C)cn1 [(117)]	< 10 nM	< 10 nM	< 10 nM	< 10 nM	< 10 nM	10 to 100 nM	10 to 100 nM
CN1CCN(CC2CCCN2c2nn3c4cc(ncc24)Nc2ccnc(n2)-c2cnn(C)c2OCCC3)CC1 (stereo not drawn) [(10)]	< 10 nM	< 10 nM	100 to 1000 nM	100 to 1000 nM	100 to 1000 nM	100 to 1000 nM	100 to 1000 nM

The next lines start with results.

IC50 (EGFR^L858R/T790M/C^797S)	IC50 (EGFR^L58R/T790M)	IC50 (EGFR^L858R)	SMILES	GI50 [1]	GI50 (Ba/F3 EGFR-Del19/T790M)	GI50 (Ba/F3 EGFR-Del19/C797S)	IC50 (Ba/F3 Parental)
< 10 nM	< 10 nM	< 10 nM	C[C@H]1CCOc2c(cnn2C)-c2nccc(n2)Nc2cc3c(cn2)c(-c2cccc(N4CC[C@H](N(C)C)C4)c2)nn31 [(167)]	< 10 nM	< 10 nM	< 10 nM	100 to 1000 nM
< 10 nM	< 10 nM	< 10 nM	C[C@H]1CCOc2c(cnn2C)-c2nccc(n2)Nc2cc3c(cn2)c(-c2ccc(CN4CCOCC4)n2C)nn31 [(120)]	< 10 nM	< 10 nM	10 to 100 nM	100 to 1000 nM
< 10 nM	< 10 nM	< 10 nM	CCn1cc(-c2nn3c4cc(ncc24)Nc2ccnc(n2)-c2cnn(C)c2OCC[C@@H]3C)cc1CN1CCOCC1 [(148)]	< 10 nM	< 10 nM	< 10 nM	100 to 1000 nM
< 10 nM	< 10 nM	10 to 100 nM	CC1CCCOc2c(cnn2C)-c2nccc(n2)Nc2cc3c(cn2)c(-c2ccnn2C)nn31 (stereo not drawn) [(75)]	10 to 100 nM	10 to 100 nM	10 to 100 nM	100 to 1000 nM
< 10 nM	< 10 nM	< 10 nM	C[C@H]1CCOc2c(cnn2C)-c2nccc(n2)Nc2cc3c(cn2)c(-c2cc(CN4CCOCC4)n(C)c2)nn31 [(139)]	< 10 nM	< 10 nM	< 10 nM	100 to 1000 nM
< 10 nM	< 10 nM	< 10 nM	CC(C)N1CCN(Cc2ccc(-c3nn4c5cc(ncc35)Nc3ccnc(n3)-c3cnn(C)c3OCC[C@@H]4C)n2C)CC1 [(122)]	< 10 nM	< 10 nM	< 10 nM	100 to 1000 nM
< 10 nM	< 10 nM	< 10 nM	C[C@H]1CCOc2c(cnn2C)-c2nccc(n2)Nc2cc3c(cn2)c(-c2cnc(CN4CCN(C)CC4)s2)nn31 [(106)]	10 to 100 nM	10 to 100 nM	< 10 nM	100 to 1000 nM
< 10 nM	< 10 nM	10 to 100 nM	C[C@H]1CCOc2c(cnn2C)-c2nccc(n2)Nc2cc3c(cn2)c(-c2cccc(CN4CCOCC4)c2)nn31 [(177)]	< 10 nM	10 to 100 nM	10 to 100 nM	100 to 1000 nM
< 10 nM	< 10 nM	< 10 nM	C[C@H]1CCOc2c(cnn2C)-c2nccc(n2)Nc2cc3c(cn2)c(-c2cc(CN4CCN(C)CC4)n(C)c2)nn31 [(144)]	< 10 nM	< 10 nM	< 10 nM	10 to 100 nM
< 10 nM	< 10 nM	< 10 nM	CCn1cc(-c2nn3c4cc(ncc24)Nc2ccnc(n2)-c2cnn(C)c2OCCC3C)cc1CN1CCN(C)CC1 (stereo not drawn) [(76)]	< 10 nM	< 10 nM	< 10 nM	10 to 100 nM
< 10 nM	< 10 nM	< 10 nM	CCn1cc(-c2nn3c4cc(ncc24)Nc2ccnc(n2)-c2cnn(C)c2OCC[C@@H]3C)cc1CN(C)C [(156)]	< 10 nM	< 10 nM	< 10 nM	100 to 1000 nM
< 10 nM	< 10 nM	< 10 nM	C[C@H]1CCOc2c(cnn2C)-c2nccc(n2)Nc2cc3c(cn2)c(-c2ccc(CN4CCOCC4)o2)nn31 [(164)]	< 10 nM	< 10 nM	10 to 100 nM	100 to 1000 nM
< 10 nM	< 10 nM	< 10 nM	C[C@H]1CCOc2c(cnn2C)-c2nccc(n2)Nc2cc3c(cn2)c(-c2ccc(CN4CCN(C5CC5)CC4)n2C)nn31 [(123)]	< 10 nM	< 10 nM	< 10 nM	100 to 1000 nM
< 10 nM	< 10 nM	< 10 nM	C[C@H]1CCOc2c(cnn2C)-c2nccc(n2)Nc2cc3c(cn2)c(-c2ccc(CN4CCNCC4)n2C)nn31 [(119)]	< 10 nM	< 10 nM	< 10 nM	100 to 1000 nM
< 10 nM	< 10 nM	< 10 nM	C[C@H]1CCOc2c(cnn2C)-c2nccc(n2)Nc2cc3c(cn2)c(-c2ccnc(N4CCN(C)CC4)c2)nn31 [(96)]	10 to 100 nM	10 to 100 nM	10 to 100 nM	100 to 1000 nM
< 10 nM	< 10 nM	< 10 nM	C[C@H]1CCOc2c(cnn2C)-c2nccc(n2)Nc2cc3c(cn2)c(-c2cccc(N4CCC(N5CCOCC5)CC4)c2)nn31 [(160)]	< 10 nM	< 10 nM	10 to 100 nM	100 to 1000 nM
